Data set [1] deals with human embryonic kidney 293 (HEK293) cells. Nature of the data set: Cytotoxicity of NTPs, CYTO TOX-GLO assay. The class given is cell-based. The procedure: The cytotoxicity of natural and modified nucleoside triphosphates (NTPs) alone or in combination with other bases, was analyzed in human embryonic kidney 293 (HEK293) cells in the absence of transfection reagent. […] 10 ul of the NTPs outlined in Table 12 were combined with 10 ul of lipid dilution and incubated for 30 minutes to form a complex before 80 ul of the HEK293 cell suspension was added to the NTP complex.
Natural and modified NTPs were transfected at a concentration of 2.1 nM, 21 nM, 210 nM, 2.1 um, 21 uM, 210 um or 2.1 mM. NTPs in combination were transfected at a total concentration of NTPs of 8.4 nM, 84 nM, 840 nM, 8.4 uM, 84 uM, 840 uM and 8.4 mM. […] The cytotoxicity of the NTPs and the modified G-CSF mRNA was assayed at 4, 24, 48 and 72 hours post addition to the HEK293 cells using a CYTO TOX-GLO™ assay from Promega (Madison, Wis.) following the manufacturer protocol except pippeting was used for lysing the cells instead of shaking the plates.

Data set [2] relates to peripheral blood mononuclear cells (PBMC). Description: In vitro screening in PBMC: G-CSF protein expression by ELISA. Type of data set: cell-based, human. An excerpt:
(§1) The supernatant was harvested and stored frozen until analyzed by ELISA to determine the G-CSF protein expression, and the induction of the cytokines interferon-alpha (IFN-α) and tumor necrosis factor alpha (TNF-α).
(In general: ELISA stands for enzyme-linked immunosorbent assay.)

The subject of a further data set is interferon-alpha (IFN-α). Nature of the data set: In vitro screening in PBMC: interferon-alpha induction by ELISA. The class given is cell-based, human.
Description: as §1

In data set [3] the test system is tumor necrosis factor alpha (TNF-α). Description: In vitro screening in PBMC: tumor necrosis factor alpha induction by ELISA. Type of data set: cell-based, human.
Description: as §1

Setting [4] is: PBMC Donor 1, 500 ng G-CSF mRNA.
[5] abbreviates: PBMC Donor 2, 500 ng G-CSF mRNA.
[6] abbreviates: PBMC Donor 3, 500 ng G-CSF mRNA.

On to Adenine, for which the “percent of viable cells” value in data set [1] (HEK293, individual NTP 2.1 nM, 4 hr) stood at 93.48%; in data set [1] (HEK293, individual NTP 2.1 nM, 24 hr), 86.44%; in data set [1] (HEK293, individual NTP 2.1 nM, 48 hr), 92.12%; in data set [1] (HEK293, individual NTP 2.1 nM, 72 hr) it was 95.74%; in data set [1] (HEK293, individual NTP 21 nM, 4 hr), 93.21%; in data set [1] (HEK293, individual NTP 21 nM, 24 hr), 87.19%. Further, the “percent of viable cells” value came out at 91.13% in data set [1] (HEK293, individual NTP 21 nM, 48 hr); 93.88% in data set [1] (HEK293, individual NTP 21 nM, 72 hr); 90.36% in data set [1] (HEK293, individual NTP 210 nM, 4 hr); 86.94% in data set [1] (HEK293, individual NTP 210 nM, 24 hr); 89.17% in data set [1] (HEK293, individual NTP 210 nM, 48 hr); 92.22% in data set [1] (HEK293, individual NTP 210 nM, 72 hr). The “percent of viable cells” value in data set [1] (HEK293, individual NTP 2.1 uM, 4 hr) came to 90.23%; in data set [1] (HEK293, individual NTP 2.1 uM, 24 hr), 86.81%; in data set [1] (HEK293, individual NTP 2.1 uM, 48 hr), 89.80%; in data set [1] (HEK293, individual NTP 2.1 uM, 72 hr), 94.58%; in data set [1] (HEK293, individual NTP 21 uM, 4 hr), 91.20%; in data set [1] (HEK293, individual NTP 21 uM, 24 hr) it was 86.86%. Moreover, the “percent of viable cells” value was determined as 89.94% in data set [1] (HEK293, individual NTP 21 uM, 48 hr); 93.83% in data set [1] (HEK293, individual NTP 21 uM, 72 hr); 85.97% in data set [1] (HEK293, individual NTP 210 uM, 4 hr); 87.31% in data set [1] (HEK293, individual NTP 210 uM, 24 hr); 90.55% in data set [1] (HEK293, individual NTP 210 uM, 48 hr); 94.81% in data set [1] (HEK293, individual NTP 210 uM, 72 hr). Also, the “percent of viable cells” value in data set [1] (HEK293, individual NTP 2.1 mM, 4 hr) amounted to 90.03%; in data set [1] (HEK293, individual NTP 2.1 mM, 24 hr) it was 88.42%; in data set [1] (HEK293, individual NTP 2.1 mM, 48 hr), 93.71%; in data set [1] (HEK293, individual NTP 2.1 mM, 72 hr), 97.49%.

`Cc1c[nH]c(=O)nc1N` [5-methyl cytosine]: the “percent of viable cells” value amounted to 92.23% in data set [1] (human, 4 h, 2.1 nM); 91.40% in data set [1] (human, 4 h, 21 nM); 92.31% in data set [1] (human, 4 h, 210 nM); 91.31% in data set [1] (human, 4 h, 2.1 uM); 91.16% in data set [1] (human, 4 h, 21 uM); 91.54% in data set [1] (human, 4 h, 210 uM). Besides, the “percent of viable cells” value in data set [1] (human, 4 h, 2.1 mM) came out at 92.01%; in data set [1] (human, 24 h, 2.1 nM), 86.35%; in data set [1] (human, 24 h, 21 nM), 86.37%; in data set [1] (human, 24 h, 210 nM), 84.71%; in data set [1] (human, 24 h, 2.1 uM), 85.14%; in data set [1] (human, 24 h, 21 uM) it was 84.72%. Further, the “percent of viable cells” value was found to be 85.76% in data set [1] (human, 24 h, 210 uM); 87.97% in data set [1] (human, 24 h, 2.1 mM); 88.18% in data set [1] (human, 48 h, 2.1 nM); 87.10% in data set [1] (human, 48 h, 21 nM); 86.44% in data set [1] (human, 48 h, 210 nM); 86.18% in data set [1] (human, 48 h, 2.1 uM). In addition, the “percent of viable cells” value is 85.74% in data set [1] (human, 48 h, 21 uM); 85.94% in data set [1] (human, 48 h, 210 uM); 87.29% in data set [1] (human, 48 h, 2.1 mM); 91.93% in data set [1] (human, 72 h, 2.1 nM); 92.10% in data set [1] (human, 72 h, 21 nM); 89.97% in data set [1] (human, 72 h, 210 nM). Besides, the “percent of viable cells” value came out at 90.92% in data set [1] (human, 72 h, 2.1 uM); 92.26% in data set [1] (human, 72 h, 21 uM); 88.10% in data set [1] (human, 72 h, 210 uM); 96.08% in data set [1] (human, 72 h, 2.1 mM).

With `Cn1cc([C@@H]2O[C@H](CO)[C@@H](O)[C@H]2O)c(=O)[nH]c1=O` [N1-methyl pseudouridine], the “percent of viable cells” value in data set [1] (human, 4 h, 2.1 nM) is reported as 91.89%; in data set [1] (human, 4 h, 21 nM) it was 91.44%; in data set [1] (human, 4 h, 210 nM), 92.15%; in data set [1] (human, 4 h, 2.1 uM) it was 90.41%; in data set [1] (human, 4 h, 21 uM), 91.48%; in data set [1] (human, 4 h, 210 uM), 91.43%. Moreover, the “percent of viable cells” value was found to be 92.45% in data set [1] (human, 4 h, 2.1 mM); 87.79% in data set [1] (human, 24 h, 2.1 nM); 86.85% in data set [1] (human, 24 h, 21 nM); 85.89% in data set [1] (human, 24 h, 210 nM); 85.72% in data set [1] (human, 24 h, 2.1 uM); 85.17% in data set [1] (human, 24 h, 21 uM). For the same molecule, the “percent of viable cells” value in data set [1] (human, 24 h, 210 uM) is listed as 86.48%; in data set [1] (human, 24 h, 2.1 mM) it was 88.92%; in data set [1] (human, 48 h, 2.1 nM), 87.81%; in data set [1] (human, 48 h, 21 nM) it was 86.72%; in data set [1] (human, 48 h, 210 nM), 87.38%; in data set [1] (human, 48 h, 2.1 uM) it was 85.85%. In addition, the “percent of viable cells” value is 87.52% in data set [1] (human, 48 h, 21 uM); 86.02% in data set [1] (human, 48 h, 210 uM); 89.84% in data set [1] (human, 48 h, 2.1 mM); 92.98% in data set [1] (human, 72 h, 2.1 nM); 92.84% in data set [1] (human, 72 h, 21 nM); 92.40% in data set [1] (human, 72 h, 210 nM). In addition, the “percent of viable cells” value in data set [1] (human, 72 h, 2.1 uM) was found to be 92.25%; in data set [1] (human, 72 h, 21 uM) it was 93.83%; in data set [1] (human, 72 h, 210 uM), 93.03%; in data set [1] (human, 72 h, 2.1 mM), 96.80%.

B1: α-thiocytidine: G-CSF mRNA (SEQ ID NO: 408) fully modified with α-thiocytidine (nucleic acid)
chain: GGGAAAUAAGAGAGAAAAGAAGAGUAAGAAGAAAUAUAAGAGCCACCAUGGCCGGUCCCGCGACCCAAAGCCCCAUGAAACUUAUGGCCCUGCAGUUGCUGCUUUGGCACUCGGCCCUCUGGACAGUCCAAGAAGCGACUCCUCUCGGACCUGCCUCAUCGUUGCCGCAGUCAUUCCUUUUGAAGUGUCUGGAGCAGGUGCGAAAGAUUCAGGGCGAUGGAGCCGCACUCCAAGAGAAGCUCUGCGCGACAUACAAACUUUGCCAUCCCGAGGAGCUCGUACUGCUCGGGCACAGCUUGGGGAUUCCCUGGGCUCCUCUCUCGUCCUGUCCGUCGCAGGCUUUGCAGUUGGCAGGGUGCCUUUCCCAGCUCCACUCCGGUUUGUUCUUGUAUCAGGGACUGCUGCAAGCCCUUGAGGGAAUCUCGCCAGAAUUGGGCCCGACGCUGGACACGUUGCAGCUCGACGUGGCGGAUUUCGCAACAACCAUCUGGCAGCAGAUGGAGGAACUGGGGAUGGCACCCGCGCUGCAGCCCACGCAGGGGGCAAUGCCGGCCUUUGCGUCCGCGUUUCAGCGCAGGGCGGGUGGAGUCCUCGUAGCGAGCCACCUUCAAUCAUUUUUGGAAGUCUCGUACCGGGUGCUGAGACAUCUUGCGCAGCCGUGAAGCGCUGCCUUCUGCGGGGCUUGCCUUCUGGCCAUGCCCUUCUUCUCUCCCUUGCACCUGUACCUCUUGGUCUUUGAAUAAAGCCUGAGUAGGAAG
modifications: α-thiocytidine modified; Description of Artificial Sequence: Synthetic Transcript Sequence
Consider B1, for which the “G-CSF Protein Expression” value in data set [2] (setting [4]) is 105 pg/mL; in data set [2] (setting [5]), 264 pg/mL; in data set [2] (setting [6]) it was 245 pg/mL. Moreover, the “IFN-α Expression” value with interferon-alpha (IFN-α) (setting [4]) was 1,138 pg/ml; with interferon-alpha (IFN-α) (setting [5]), 565 pg/mL; in the data set with interferon-alpha (IFN-α) (setting [6]), 695 pg/mL. Moreover, the cytokine induction entry in the data set with interferon-alpha (IFN-α) (PBMC, G-CSF mRNA, result in words) is “increase cytokine stimulation”. Besides, the “TNF-α Expression” value in data set [3] (setting [4]) was 300 pg/mL; in data set [3] (setting [5]) it was 273 pg/mL; in data set [3] (setting [6]), 277 pg/mL.

Source of the values: patent US20180291335A1, “MODIFIED POLYNUCLEOTIDES FOR ALTERING CELL PHENOTYPE” (ModernaTX, Inc., priority 2012, published 2018).
